{"source": "patent US20080014186A1", "about": "“Hla-A24 or Hla-A2 Binding Peptides of Parathyroid Hormone-Related Protein” (GREEN PEPTIDE CO., LTD., priority 2004, published 2008)", "key": {"[1]": {"test_system": "PBMCs of HLA-A2^+ healthy donors and prostate cancer patients", "assay": "Assay for peptide-specific CTLs in PBMCs (IFN-γ ELISA, peptide-pulsed T2 cells)", "type": "cell-based, human", "settings": "for INF-γ production: T2 cells"}, "[2]": {"test_system": "IgG in plasma of HLA-A2^+ healthy donors and prostate cancer patients", "assay": "Peptide-specific IgG in plasma by ELISA (HLA-A2-binding PTHrP peptides)", "design": "species or system human", "settings": "for IgG reactive to the peptide in plasma (difference of OD): 1:100-diluted plasma", "method_in_brief": "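Plasma from HLA-A2+ donors and prostate cancer patients incubated 2 h at 37 °C on peptide-coated plates (20 μg/well); bound IgG detected by rabbit anti-human IgG (γ-chain), then HRP anti-rabbit, TMB.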"}, "[3]": {"settings": "HLA-A2^+ prostate cancer patients"}}, "data": [{"sequence": "FLHHLIAEIH [PTHrP 59-68, previously reported PTHrP peptide generating CTLs from HLA-A*0201 healthy donors [17], reference compound]", "values": [{"measurement": "INF-γ production", "setting": "[1]; HLA-A2^+ healthy donor #1 (A0201)", "value": 23, "unit": "pg/mL"}, {"measurement": "INF-γ production", "setting": "[1]; HLA-A2^+ healthy donor #2 (A0201)", "value": 51, "unit": "pg/mL"}, {"measurement": "INF-γ production", "setting": "[1]; HLA-A2^+ healthy donor #3 (A0201)", "value": 0, "unit": "pg/mL"}, {"measurement": "INF-γ production", "setting": "[1]; HLA-A2^+ healthy donor #4 (A0201)", "value": 0, "unit": "pg/mL"}, {"measurement": "INF-γ production", "setting": "[1]; HLA-A2^+ healthy donor #5 (A0206)", "value": 0, "unit": "pg/mL"}, {"measurement": "INF-γ production", "setting": "[1]; HLA-A2^+ healthy donor #6 (A0206)", "value": 46, "unit": "pg/mL"}, {"measurement": "INF-γ production", "setting": "[1]; HLA-A2^+ healthy donor #7 (A0206)", "value": 0, "unit": "pg/mL"}, {"measurement": "INF-γ production", "setting": "[1]; HLA-A2^+ healthy donor #8 (A0206)", "value": 0, "unit": "pg/mL"}, {"measurement": "INF-γ production", "setting": "[1]; HLA-A2^+ healthy donor #9 (A0206)", "value": 0, "unit": "pg/mL"}, {"measurement": "INF-γ production", "setting": "[1]; HLA-A2^+ healthy donor #10 (A0207)", "value": 0, "unit": "pg/mL"}, {"measurement": "induced peptide-specific CTLs, number of donors", "setting": "[1]; HLA-A2^+ healthy donors", "value": "no peptide-specific CTLs were induced"}, {"measurement": "Total (donors with significant peptide-specific IFN-γ production / donors tested)", "setting": "[1]; HLA-A2^+ healthy donors, p < 0.05", "value": "0/10"}, {"measurement": "INF-γ production", "setting": "[1]; HLA-A2^+ prostate cancer patient #1 (A0206)", "value": 31, "unit": "pg/mL"}, {"measurement": "INF-γ production", "setting": "[1]; HLA-A2^+ prostate cancer patient #2 (A0210)", "value": 0, "unit": "pg/mL"}, {"measurement": "INF-γ production", "setting": "[1]; HLA-A2^+ prostate cancer patient #3 (A0210)", "value": 48, "unit": "pg/mL"}, {"measurement": "INF-γ production", "setting": "[1]; HLA-A2^+ prostate cancer patient #4 (A0206)", "value": 138, "unit": "pg/mL"}, {"measurement": "INF-γ production", "setting": "[1]; HLA-A2^+ prostate cancer patient #5 (A0206)", "value": 154, "unit": "pg/mL"}, {"measurement": "INF-γ production", "setting": "[1]; HLA-A2^+ prostate cancer patient #6 (A0207)", "value": 0, "unit": "pg/mL"}, {"measurement": "INF-γ production", "setting": "[1]; HLA-A2^+ prostate cancer patient #7 (A0206)", "value": 222, "unit": "pg/mL"}, {"measurement": "INF-γ production", "setting": "[1]; HLA-A2^+ prostate cancer patient #8 (A0206)", "value": 146, "unit": "pg/mL"}, {"measurement": "INF-γ production", "setting": "[1]; HLA-A2^+ prostate cancer patient #9 (A0201)", "value": 43, "unit": "pg/mL"}, {"measurement": "INF-γ production", "setting": "[1]; HLA-A2^+ prostate cancer patient #10 (A0201)", "value": 112, "unit": "pg/mL"}, {"measurement": "induced peptide-specific CTLs (peptide-specific IFN-γ production), number of patients", "setting": "[1]; [3]", "value": "5 of 10"}, {"measurement": "Total (patients with significant peptide-specific IFN-γ production / patients tested)", "setting": "[1]; HLA-A2^+ prostate cancer patients, p < 0.05", "value": "5/10"}, {"measurement": "IgG reactive to the peptide in plasma (difference of OD)", "setting": "[2]; HLA-A2^+ healthy donor #1", "value": 0.0855, "unit": "OD"}, {"measurement": "IgG reactive to the peptide in plasma (difference of OD)", "setting": "[2]; HLA-A2^+ healthy donor #2", "value": "— (IgG reactive to a corresponding peptide was judged to be positive when a difference of OD in a 1:100-diluted plasma was more than 0.054.)"}, {"measurement": "IgG reactive to the peptide in plasma (difference of OD)", "setting": "[2]; HLA-A2^+ healthy donor #3", "value": "— (IgG reactive to a corresponding peptide was judged to be positive when a difference of OD in a 1:100-diluted plasma was more than 0.054.)"}, {"measurement": "IgG reactive to the peptide in plasma (difference of OD)", "setting": "[2]; HLA-A2^+ healthy donor #4", "value": "— (IgG reactive to a corresponding peptide was judged to be positive when a difference of OD in a 1:100-diluted plasma was more than 0.054.)"}, {"measurement": "IgG reactive to the peptide in plasma (difference of OD)", "setting": "[2]; HLA-A2^+ healthy donor #5", "value": "— (IgG reactive to a corresponding peptide was judged to be positive when a difference of OD in a 1:100-diluted plasma was more than 0.054.)"}, {"measurement": "IgG reactive to the peptide in plasma (difference of OD)", "setting": "[2]; HLA-A2^+ healthy donor #6", "value": "— (IgG reactive to a corresponding peptide was judged to be positive when a difference of OD in a 1:100-diluted plasma was more than 0.054.)"}, {"measurement": "IgG reactive to the peptide in plasma (difference of OD)", "setting": "[2]; HLA-A2^+ healthy donor #7", "value": 0.119, "unit": "OD"}, {"measurement": "IgG reactive to the peptide in plasma (difference of OD)", "setting": "[2]; HLA-A2^+ healthy donor #8", "value": 0.167, "unit": "OD"}, {"measurement": "IgG reactive to the peptide in plasma (difference of OD)", "setting": "[2]; HLA-A2^+ healthy donor #9", "value": 0.065, "unit": "OD"}, {"measurement": "IgG reactive to the peptide in plasma (difference of OD)", "setting": "[2]; HLA-A2^+ healthy donor #10", "value": 0.112, "unit": "OD"}, {"measurement": "Total (IgG-positive donors / donors tested)", "setting": "[2]; HLA-A2^+ healthy donors", "value": "5/10"}, {"measurement": "IgG reactive to the peptide in plasma (difference of OD)", "setting": "[2]; HLA-A2^+ prostate cancer patient #1", "value": "— (IgG reactive to a corresponding peptide was judged to be positive when a difference of OD in a 1:100-diluted plasma was more than 0.054.)"}, {"measurement": "IgG reactive to the peptide in plasma (difference of OD)", "setting": "[2]; HLA-A2^+ prostate cancer patient #2", "value": "— (IgG reactive to a corresponding peptide was judged to be positive when a difference of OD in a 1:100-diluted plasma was more than 0.054.)"}, {"measurement": "IgG reactive to the peptide in plasma (difference of OD)", "setting": "[2]; HLA-A2^+ prostate cancer patient #3", "value": 0.0795, "unit": "OD"}, {"measurement": "IgG reactive to the peptide in plasma (difference of OD)", "setting": "[2]; HLA-A2^+ prostate cancer patient #4", "value": "— (IgG reactive to a corresponding peptide was judged to be positive when a difference of OD in a 1:100-diluted plasma was more than 0.054.)"}, {"measurement": "IgG reactive to the peptide in plasma (difference of OD)", "setting": "[2]; HLA-A2^+ prostate cancer patient #5", "value": "— (IgG reactive to a corresponding peptide was judged to be positive when a difference of OD in a 1:100-diluted plasma was more than 0.054.)"}, {"measurement": "IgG reactive to the peptide in plasma (difference of OD)", "setting": "[2]; HLA-A2^+ prostate cancer patient #6", "value": "— (IgG reactive to a corresponding peptide was judged to be positive when a difference of OD in a 1:100-diluted plasma was more than 0.054.)"}, {"measurement": "IgG reactive to the peptide in plasma (difference of OD)", "setting": "[2]; HLA-A2^+ prostate cancer patient #7", "value": "— (IgG reactive to a corresponding peptide was judged to be positive when a difference of OD in a 1:100-diluted plasma was more than 0.054.)"}, {"measurement": "IgG reactive to the peptide in plasma (difference of OD)", "setting": "[2]; HLA-A2^+ prostate cancer patient #8", "value": "— (IgG reactive to a corresponding peptide was judged to be positive when a difference of OD in a 1:100-diluted plasma was more than 0.054.)"}, {"measurement": "IgG reactive to the peptide in plasma (difference of OD)", "setting": "[2]; HLA-A2^+ prostate cancer patient #9", "value": "— (IgG reactive to a corresponding peptide was judged to be positive when a difference of OD in a 1:100-diluted plasma was more than 0.054.)"}, {"measurement": "IgG reactive to the peptide in plasma (difference of OD)", "setting": "[2]; HLA-A2^+ prostate cancer patient #10", "value": 0.1305, "unit": "OD"}, {"measurement": "Total (IgG-positive patients / patients tested)", "setting": "[2]; [3]", "value": "2/10"}]}]}
